Test results taken from patent US20240287080A1 (IDEAYA Biosciences Inc., priority 2021, published 2024).

Target: T1, Pol theta (1-899) (Homo sapiens, UniProt O75417)
T1 construct: Pol theta (1-899) (5 nM) in assay buffer
Assay: Pol theta ATPase activity, NADH oxidation-coupled enzymatic assay (ATPase NADH coupling: Standard Screening: hPolQ)
Type: biochemical
Conditions: Pol theta (1-899) 5 nM, NADH oxidation-coupled ATPase assay; compounds of Table 3
How it was run: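 NADH-coupled ATPase readout: 5 nM Pol theta (1-899) preincubated 15 min with 10-point compound series in Tris pH 7.80, KCl, MgCl2, DTT, BSA, Tween, glycerol, then 100 μM ATP, 300 nM 50-mer poly-dT ssDNA, NADH, PEP, LDH and PK added (stock levels). A340 followed 60 min; slopes fit four-parameter for IC50.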

T1 sequence (O75417 1-899): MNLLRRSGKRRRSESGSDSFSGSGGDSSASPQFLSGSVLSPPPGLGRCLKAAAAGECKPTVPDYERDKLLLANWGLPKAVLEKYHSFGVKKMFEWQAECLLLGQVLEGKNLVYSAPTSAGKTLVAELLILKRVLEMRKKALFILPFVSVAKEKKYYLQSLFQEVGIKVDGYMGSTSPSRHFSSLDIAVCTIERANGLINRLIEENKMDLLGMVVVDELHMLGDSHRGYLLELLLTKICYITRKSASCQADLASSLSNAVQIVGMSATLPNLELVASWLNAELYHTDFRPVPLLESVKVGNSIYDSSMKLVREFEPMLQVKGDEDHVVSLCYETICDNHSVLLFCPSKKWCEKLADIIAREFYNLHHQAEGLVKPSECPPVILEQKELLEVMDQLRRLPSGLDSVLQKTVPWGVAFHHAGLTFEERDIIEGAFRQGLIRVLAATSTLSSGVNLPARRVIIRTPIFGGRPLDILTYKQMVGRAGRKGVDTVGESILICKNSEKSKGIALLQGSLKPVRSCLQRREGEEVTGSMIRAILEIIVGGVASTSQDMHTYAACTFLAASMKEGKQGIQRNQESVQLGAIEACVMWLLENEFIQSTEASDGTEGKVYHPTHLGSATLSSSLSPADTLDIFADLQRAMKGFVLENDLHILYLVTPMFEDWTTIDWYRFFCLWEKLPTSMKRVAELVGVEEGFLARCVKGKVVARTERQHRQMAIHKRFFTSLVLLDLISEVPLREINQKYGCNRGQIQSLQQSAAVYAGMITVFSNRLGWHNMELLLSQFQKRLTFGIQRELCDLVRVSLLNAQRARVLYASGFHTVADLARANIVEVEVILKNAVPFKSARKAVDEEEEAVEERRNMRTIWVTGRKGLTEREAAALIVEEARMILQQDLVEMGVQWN

Row | SMILES | IC50
1 | COc1nnc(NC(=O)c2cnc(C)cc2-c2ccccc2C#N)s1 [Example 454, 4-(2-cyanophenyl)-N-(5-methoxy-1,3,4-thiadiazol-2-yl)-6-methylpyridine-3-carboxamide] | 1 to 10 µM
2 | COc1nnc(NC(=O)c2cnc(C)cc2-c2ccc3c(c2)NC(=O)CO3)s1 [Example 346, N-(5-methoxy-1,3,4-thiadiazol-2-yl)-6-methyl-4-(3-oxo-3,4-dihydro-2H-1,4-benzoxazin-6-yl)pyridine-3-carboxamide] | 1 to 10 µM
3 | COc1ccc(F)c(-c2cc(C)ncc2C(=O)Nc2nnc(OC)s2)c1 [Example 447, 4-(2-fluoro-5-methoxyphenyl)-N-(5-methoxy-1,3,4-thiadiazol-2-yl)-6-methylpyridine-3-carboxamide] | 0.5 to 1 µM
4 | COc1nnc(NC(=O)c2cc(OC(F)F)ncc2-c2cc(Cl)ncc2OC)s1 [Example 265, 2′-chloro-6-(difluoromethoxy)-5′-methoxy-N-(5-methoxy-1,3,4-thiadiazol-2-yl)-[3,4′-bipyridine]-4-carboxamide] | ≤ 0.2 µM
5 | COc1nnc(NC(=O)c2cnc(C)cc2-c2ccncc2C)s1 [Example 406, N-(5-methoxy-1,3,4-thiadiazol-2-yl)-3′,6-dimethyl-[4,4′-bipyridine]-3-carboxamide] | 1 to 10 µM
6 | COc1nnc(NC(=O)c2cnc(C)cc2-c2ccc3cn(C)nc3c2)s1 [Example 417, N-(5-methoxy-1,3,4-thiadiazol-2-yl)-6-methyl-4-(2-methyl-2H-indazol-6-yl)nicotinamide] | 1 to 10 µM
7 | COc1nnc(NC(=O)c2cnc(C(F)F)cc2-c2cc(Cl)ncc2OC)s1 [Example 281, 2′-chloro-6-(difluoromethyl)-5′-methoxy-N-(5-methoxy-1,3,4-thiadiazol-2-yl)-[4,4′-bipyridine]-3-carboxamide] | ≤ 0.2 µM
8 | COc1cnc(Cl)cc1-c1cc(C)ncc1C(=O)Nc1nnc(O[C@H]2CO[C@H]3[C@@H]2OC[C@H]3O[N+](=O)[O-])s1 [Example 238, (3R,3aS,6S,6aR)-6-((5-(2′-chloro-5′-methoxy-6-methyl-[4,4′-bipyridine]-3-carboxamido)-1,3,4-thiadiazol-2-yl)oxy)hexahydrofuro[3,2-b]furan-3-yl nitrate] | ≤ 0.2 µM
9 | COc1nnc(NC(=O)c2cnc(C)cc2-c2ccc(C(=O)O)c(F)c2)s1 [Example 465, 2-fluoro-4-(5-((5-methoxy-1,3,4-thiadiazol-2-yl)carbamoyl)-2-methylpyridin-4-yl)benzoic acid] | 1 to 10 µM
10 | COc1nnc(NC(=O)c2cnc(C)cc2-c2cnc(N3CCOCC3)nc2)s1 [Example 427, N-(5-methoxy-1,3,4-thiadiazol-2-yl)-6-methyl-4-[2-(morpholin-4-yl)pyrimidin-5-yl]pyridine-3-carboxamide] | 1 to 10 µM
11 | COc1nnc(NC(=O)c2cnc(C)cc2-c2ccc(F)cc2)s1 [Example 368, 4-(4-fluorophenyl)-N-(5-methoxy-1,3,4-thiadiazol-2-yl)-6-methylpyridine-3-carboxamide] | 1 to 10 µM
12 | COc1nnc(NC(=O)c2cnc(C)cc2-c2cccc(C)c2)s1 [Example 361, N-(5-methoxy-1,3,4-thiadiazol-2-yl)-6-methyl-4-(3-methylphenyl) pyridine-3-carboxamide] | 0.5 to 1 µM
13 | COc1cnc(Cl)cc1-c1cc(C)ncc1C(=O)Nc1nnc(O[C@H]2CN3CCC2CC3)s1 [Example 306, (R)-2′-chloro-5′-methoxy-6-methyl-N-(5-(quinuclidin-3-yloxy)-1,3,4-thiadiazol-2-yl)-[4,4′-bipyridine]-3-carboxamide] | 1 to 10 µM
14 | COc1nnc(NC(=O)c2cnc(C)cc2-c2ccsc2)s1 [Example 388, N-(5-methoxy-1,3,4-thiadiazol-2-yl)-6-methyl-4-(thiophen-3-yl)nicotinamide] | 1 to 10 µM
15 | CC[S@@+]([O-])c1cc(OC)c(-c2cc(C)ncc2C(=O)Nc2nnc(OC)s2)cc1Cl (single isomer, unassigned) [Example 313] | ≤ 0.2 µM
16 | COc1cnc(C)c(F)c1-c1cc(C)ncc1C(=O)Nc1nnc(O[C@@H]2CCC[C@@H](O)C2)s1 (single isomer, unassigned) [Example 274] | ≤ 0.2 µM
17 | COc1cnc(C)c(F)c1-c1cc(C)ncc1C(=O)Nc1nnc(O[C@H]2CCC[C@@H](O)C2)s1 (single isomer, unassigned) [Example 236] | ≤ 0.2 µM
18 | COc1nnc(NC(=O)c2cnc(C)cc2-c2cc(F)cc(C#N)c2)s1 [Example 439, 4-(3-cyano-5-fluorophenyl)-N-(5-methoxy-1,3,4-thiadiazol-2-yl)-6-methylpyridine-3-carboxamide] | 0.5 to 1 µM
19 | CC[S@+]([O-])c1cc(OC)c(-c2cc(C)ncc2C(=O)Nc2nnc(OC)s2)cc1Cl (single isomer, unassigned) [Example 312] | 0.5 to 1 µM
20 | COc1cnc(Br)cc1-c1cc(C)ncc1C(=O)Nc1nnc(O[C@H]2CCC[C@@H](O)C2)s1 (single isomer, unassigned) [Example 244] | ≤ 0.2 µM
21 | COc1nnc(NC(=O)c2cnc(C)cc2-c2ccc(S(N)(=O)=O)cc2)s1 [Example 378, N-(5-methoxy-1,3,4-thiadiazol-2-yl)-6-methyl-4-(4-sulfamoylphenyl)pyridine-3-carboxamide] | 1 to 10 µM
22 | COc1nnc(NC(=O)c2cnc(C)cc2-c2ccc3c(c2)CC(=O)N3)s1 [Example 347, N-(5-methoxy-1,3,4-thiadiazol-2-yl)-6-methyl-4-(2-oxo-2,3-dihydro-1H-indol-5-yl)pyridine-3-carboxamide] | 1 to 10 µM

Same assay, conditions: Table 4; Pol theta (1-899) 5 nM, ATP, dT50 ssDNA

Row | SMILES | IC50
23 | COc1cnc(Cl)cc1-c1cc(C)ncc1C(=O)Nc1nnc(O[C@H]2CC[C@@H](O)CC2)s1 (single isomer, unassigned) [Example 26, 2′-chloro-N-(5-(((1s,4s)-4-hydroxycyclohexyl)oxy)-1,3,4-thiadiazol-2-yl)-5′-methoxy-6-methyl-[4,4′-bipyridine]-3-carboxamide] | ≤ 0.2 µM
24 | COc1nnc(NC(=O)c2cnc(C)cc2-c2c(F)cccc2OC)s1 [Example 2, 4-(2-fluoro-6-methoxyphenyl)-N-(5-methoxy-1,3,4-thiadiazol-2-yl)-6-methylpyridine-3-carboxamide] | ≤ 0.2 µM

Same assay, conditions: Table 5; Pol theta (1-899) 5 nM, ATP, dT50 ssDNA

Row | SMILES | IC50
25 | COc1cnc(Cl)cc1-c1cc(C)ncc1C(=O)Nc1nnc(O[C@H]2CC[C@](C)(O)CC2)s1 (single isomer, unassigned) [Example 140, 2′-chloro-N-(5-(((1r,4r)-4-hydroxy-4-methylcyclohexyl)oxy)-1,3,4-thiadiazol-2-yl)-5′-methoxy-6-methyl-(4,4′-bipyridine)-3-carboxamide] | ≤ 0.2 µM
26 | COc1cnc(Cl)cc1-c1cc(C)ncc1C(=O)Nc1nnc(O[C@H]2COC3(CCCC3)C2)s1 (single isomer, unassigned) [Example 230] | ≤ 0.2 µM
27 | COc1nnc(NC(=O)c2cnc(C)cc2-c2cccc(Cl)c2)s1 [Example 102, 4-(3-chlorophenyl)-N-(5-methoxy-1,3,4-thiadiazol-2-yl)-6-methylnicotinamide] | 0.2 to 0.5 µM
28 | COc1cnc(Cl)cc1-c1cc(C)ncc1C(=O)Nc1nnc(O[C@H]2C[C@H](OC)C2)s1 (single isomer, unassigned) [Example 133, 2′-chloro-5′-methoxy-N-(5-((1r,3r)-3-methoxycyclobutoxy)-1,3,4-thiadiazol-2-yl)-6-methyl-(4,4′-bipyridine)-3-carboxamide] | ≤ 0.2 µM
29 | COc1cnc(C)c(F)c1-c1cc(C)ncc1C(=O)Nc1nnc(O[C@@H]2COC3(CC3)C2)s1 (single isomer, unassigned) [Example 207] | ≤ 0.2 µM
30 | COc1nnc(NC(=O)c2cnc(C)cc2-c2cnn3c2OCC3)s1 [Example 126, 4-(2,3-dihydropyrazolo(5,1-b)oxazol-7-yl)-N-(5-methoxy-1,3,4-thiadiazol-2-yl)-6-methylnicotinamide] | 1 to 10 µM
31 | COc1cnc(Cl)cc1-c1cc(C)ncc1C(=O)Nc1nnc(OC2CCC3(CCCO3)CC2)s1 (single isomer, unassigned) [Example 173, N-(5-(((5s,8r)-1-oxaspiro(4.5)decan-8-yl)oxy)-1,3,4-thiadiazol-2-yl)-2′-chloro-5′-methoxy-6-methyl-(4,4′-bipyridine)-3-carboxamide] | ≤ 0.2 µM
32 | COc1cnc(Cl)c(F)c1-c1cc(C)ncc1C(=O)Nc1nnc(O[C@H]2CCC[C@@H](O)C2)s1 (single isomer, unassigned) [Example 154] | ≤ 0.2 µM
33 | COc1cnc(Cl)cc1-c1cc(C)ncc1C(=O)Nc1nnc(O[C@H]2CC[C@@H]2O)s1 (single isomer, unassigned) [Example 119] | ≤ 0.2 µM
34 | COc1cnc(Cl)c(F)c1-c1cc(C)ncc1C(=O)Nc1nnc(O[C@H]2CC[C@@H](O)C2)s1 (racemic) [Example 170, rac-2′-chloro-3′-fluoro-N-(5-(((1R,3S)-3-hydroxycyclopentyl)oxy)-1,3,4-thiadiazol-2-yl)-5′-methoxy-6-methyl-(4,4′-bipyridine)-3-carboxamide] | ≤ 0.2 µM
35 | COc1cnc(C)c(F)c1-c1cc(C)ncc1C(=O)Nc1nnc(O[C@H]2COC3(CC3)C2)s1 (single isomer, unassigned) [Example 208] | ≤ 0.2 µM
36 | COc1nnc(NC(=O)c2cnc(C)cc2-c2ccnc(Cl)c2)s1 [Example 100, 2′-chloro-N-(5-methoxy-1,3,4-thiadiazol-2-yl)-6-methyl-(4,4′-bipyridine)-3-carboxamide] | 0.2 to 0.5 µM
37 | COc1nnc(NC(=O)c2cnc(C)cc2-c2cccn3nnnc23)s1 [Example 85, N-(5-methoxy-1,3,4-thiadiazol-2-yl)-6-methyl-4-(tetrazolo(1,5-a)pyridin-8-yl)nicotinamide] | 1 to 10 µM
